Data published in patent publication US20140271930A1, “NONINVASIVE METHOD FOR MEASURING METABOLITES FOR SKIN HEALTH” (priority 2013, published 2014).
Marks after values point to notes of the source that are not given here. Peptide text beside a SMILES is read from it.

Tested on: scalp of dandruff and non-dandruff subjects
Test: Metabolite expression profiling (LC/MS/MS, GC/MS/MS) of scalp D-Squame tape strip extracts: non-dandruff, dandruff baseline, dandruff after 3 weeks anti-dandruff shampoo
Format: in vivo, human
Details: for Fold Change Wk 3 Sel vs Dandruff Baseline / Fold Change Wk 3 ZPT vs Dandruff Baseline / Fold Change Wk 3 ZPT vs Non-Dan Baseline / Fold Change Wk 3 Sel vs Non-Dan Baseline: metabolite level in scalp tape strips; for Fold Change Wk 3 Sel vs Dandruff Baseline / Fold Change Wk 3 ZPT vs Dandruff Baseline: standardized to soluble protein; for Fold Change Wk 3 Sel vs Dandruff Baseline: dandruff subjects after 3 weeks 1% selenium sulfide shampoo vs own baseline; for Fold Change Wk 3 ZPT vs Dandruff Baseline: dandruff subjects after 3 weeks 1% zinc pyrithione shampoo vs own baseline; for Fold Change Wk 3 ZPT vs Non-Dan Baseline: dandruff subjects after 3 weeks 1% ZPT shampoo vs non-dandruff subjects; for Fold Change Wk 3 Sel vs Non-Dan Baseline: dandruff subjects after 3 weeks 1% selenium sulfide shampoo vs non-dandruff subjects
Source text: In an embodiment, the use of an adhesive device can be used to achieve such sampling. In preparation for such a sampling study for a dandruff sampling, at a baseline visit, a qualified screening grader will complete adherent scalp flaking score (ASFS) grading for each subject and the highest flaking octant will be identified for tape strip sampling. The highest flaking octant will be sampled at baseline and at various time points during and after treatment with product. Tape strips samples will be collected from each subject at each time point (e.g., baseline and week 3).
The tape strip sampling procedure is repeated additional times, as needed, at the same site placing each D-Squame® tape disc on top of the prior sampled area. The D-Squame® tapes after sample collection are placed into the appropriately labeled wells in a labeled plate.
Following the sampling, an extraction and quantitation procedure is conducted. In an embodiment of the present invention, quantitation of small molecules from extracts of D-Squame® Tape Samples can be conducted via analysis by either LC/MS/MS or GC/MS/MS. In this embodiment of the present invention, the sample extraction in preparation for Metabolite expression profiling technology was performed.
The D-Squame® tape sample plates are removed from −80° C. freezer where they are stored following sample collection, and placed on dry ice. The tape strips are inserted into pre-labeled polypropylene collection tubes, adhesive side facing inward. Extraction buffer containing methanol and water is added to each collection tube and then extracted on ice using sonication for 15 min. If necessary, additional tapes are placed in the collection tube containing the extract solution and the extraction process is repeated as a means of concentrating the sample. Each extract solution is isolated from the tape strip and an aliquot of each sample is placed into a pre-labeled polypropylene collection tubes and frozen at −80° C. for metabolite expression profiling analysis. A separate aliquot is specified for soluble protein analysis using a BCA™ Protein Assay Kit. For this analysis, the aliquot consisting of methanol and water is taken to dryness under a gentle stream of nitrogen. The sample is resuspended in an appropriate aqueous buffer (e.g., PBS/SDS (1× PBS+0.2% SDS) and analyzed for soluble protein.
The extracts are analyzed by GC/MS/MS and LC/MS/MS in positive and negative ion mode. Chromatographic separation followed by full scan mass spectra and MS/MS spectra is carried out to record and quantify all detectable ions present in the samples. Metabolites with known chemical structure can be identified by matching the ions' chromatographic retention index and mass spectra fragmentation signatures with reference library entries created from authentic standard metabolites under the identical analytical procedure as the experimental samples. Welch's Two Sample t-tests and matched-pair t-tests are used to analyze the data. […] The statistical analyses are performed on natural log-transformed data to reduce the effect of any potential outliers in the data. Welch's Two Sample t-test comparisons are made between the means of each biochemical from the various groups listed at the top of the tables and are calculated using either or both of the statistical analysis software programs: Array Studio (Omicsoft, Inc) or “R” from the Free Software Foundation, Inc.
Subjects are evaluated by a qualified grader to establish their scalp status. Dandruff subjects are identified by their level of visible flaking as assessed by a qualified grader. Non-dandruff healthy scalp subjects are evaluated at baseline to establish normalized levels of each biomarker. In this study, there are 60 non-dandruff subjects that are evaluated at baseline. […] They are evaluated at baseline, and after 3 weeks of product usage.

[1] = dandruff subjects after 3 weeks treatment with Sel shampoo, metabolite level in scalp tape strip extract
[2] = dandruff subjects after 3 weeks treatment with ZPT shampoo, metabolite level in scalp tape strip extract
[3] = relative metabolite level in scalp tape strips, dandruff subjects after 3 weeks 1% ZPT shampoo
[4] = relative metabolite level in scalp tape strips, dandruff subjects after 3 weeks 1% selenium sulfide shampoo

Molecule: CCCCCCCCCCCCCCCCC(=O)OCC(O)CO (stereo not shown)
- Mean Values WEEK 3 TRT Sel [1]: 0.638
- Mean Values WEEK 3 TRT ZPT [2]: 1.1274

Molecule: 13- and 9-hydroxyoctadecadienoic acid [13-HODE + 9-HODE]
- reduction / decrease of metabolite level vs dandruff baseline (after three weeks ZPT shampoo): 74%
- decrease of metabolite level vs dandruff baseline (after three weeks selenium sulfide shampoo): 66%
- Mean Values WEEK 3 TRT Sel [1]: 0.4182
- Mean Values WEEK 3 TRT ZPT [2]: 0.4413
- Fold Change Wk 3 Sel vs Dandruff Baseline: 0.34* fold
- Fold Change Wk 3 Sel vs Dandruff Baseline (listed as 13-HODE+9-HODE): 0.34 fold
- Fold Change Wk 3 ZPT vs Dandruff Baseline: 0.26*** fold
- Fold Change Wk 3 ZPT vs Dandruff Baseline (listed as 13-HODE+9-HODE): 0.26 fold
- Fold Change Wk 3 ZPT vs Non-Dan Baseline: 0.5*** fold
- Fold Change Wk 3 Sel vs Non-Dan Baseline: 0.48* fold

Molecule: CCCCCCCCCCCCCCC(O)C(=O)O (stereo not shown) [2-hydroxypalmitate]
- Mean Values WEEK 3 TRT Sel [1]: 0.6696
- Mean Values WEEK 3 TRT ZPT [2]: 0.8231
- Fold Change Wk 3 Sel vs Dandruff Baseline: 0.57* fold
- Fold Change Wk 3 ZPT vs Dandruff Baseline: 1.04 fold
- Fold Change Wk 3 ZPT vs Non-Dan Baseline: 0.6* fold
- Fold Change Wk 3 Sel vs Non-Dan Baseline: 0.49* fold

Molecule: O=C(O)C(O)Cc1ccc(O)cc1 (stereo not shown) [3-(4-hydroxyphenyl)lactate]
- Mean Values WEEK 3 TRT Sel [1]: 0.7878
- Mean Values WEEK 3 TRT ZPT [2]: 0.7551
- Fold Change Wk 3 Sel vs Dandruff Baseline: 0.44* fold
- Fold Change Wk 3 ZPT vs Dandruff Baseline: 0.7*** fold
- Fold Change Wk 3 ZPT vs Non-Dan Baseline: 0.8 fold
- Fold Change Wk 3 Sel vs Non-Dan Baseline: 0.84 fold

Molecule: CC(C)CCC[C@@H](C)[C@H]1CC[C@H]2[C@@H]3[C@H](O)C=C4C[C@@H](O)CC[C@]4(C)[C@H]3CC[C@]12C [7-alpha-hydroxycholesterol]
- Mean Values WEEK 3 TRT Sel [1]: 0.9662
- Mean Values WEEK 3 TRT ZPT [2]: 0.959

Molecule: CCCCCCC=CCCCCCCCCC(=O)O [10-heptadecenoate (17:1n7), 10-heptadecenoate]
- Mean Values WEEK 3 TRT Sel [1]: 0.4139
- Mean Values WEEK 3 TRT ZPT [2]: 0.7411
- Fold Change Wk 3 Sel vs Dandruff Baseline: 0.33* fold
- Fold Change Wk 3 ZPT vs Dandruff Baseline: 0.67*** fold
- Fold Change Wk 3 ZPT vs Non-Dan Baseline: 0.52*** fold
- Fold Change Wk 3 Sel vs Non-Dan Baseline: 0.29* fold

Molecule: CCCCCCCCC=CCCCCCCCCC(=O)O [10-nonadecenoate (19:1n9), 10-nonadecenoate]
- Mean Values WEEK 3 TRT Sel [1]: 0.1901
- Mean Values WEEK 3 TRT ZPT [2]: 0.4088
- Fold Change Wk 3 Sel vs Dandruff Baseline: 0.14* fold
- Fold Change Wk 3 ZPT vs Dandruff Baseline: 0.31* fold
- Fold Change Wk 3 ZPT vs Non-Dan Baseline: 0.38* fold
- Fold Change Wk 3 Sel vs Non-Dan Baseline: 0.17* fold

Molecule: CC(C)CCCCCCCCCCCCCC(=O)O [15-methylpalmitate]
- Mean Values WEEK 3 TRT Sel [1]: 0.3813
- Mean Values WEEK 3 TRT ZPT [2]: 0.485
- Fold Change Wk 3 Sel vs Dandruff Baseline: 0.31* fold
- Fold Change Wk 3 ZPT vs Dandruff Baseline: 0.4* fold
- Fold Change Wk 3 ZPT vs Non-Dan Baseline: 0.35* fold
- Fold Change Wk 3 Sel vs Non-Dan Baseline: 0.27* fold

Molecule: CC(C)CCCCCCCCCCCCCCCC(=O)O [17-methylstearate]
- Mean Values WEEK 3 TRT Sel [1]: 0.273
- Mean Values WEEK 3 TRT ZPT [2]: 0.4446
- Fold Change Wk 3 Sel vs Dandruff Baseline: 0.21* fold
- Fold Change Wk 3 ZPT vs Dandruff Baseline: 0.36* fold
- Fold Change Wk 3 ZPT vs Non-Dan Baseline: 0.35* fold
- Fold Change Wk 3 Sel vs Non-Dan Baseline: 0.22* fold

Molecule: OC[C@@H](O)C(O)[C@H](O)CO [Arabitol]
- Fold Change Wk 3 Sel vs Dandruff Baseline: 0.73 fold
- Fold Change Wk 3 ZPT vs Dandruff Baseline: 0.61* fold
- Fold Change Wk 3 ZPT vs Non-Dan Baseline: 0.65 fold
- Fold Change Wk 3 Sel vs Non-Dan Baseline: 1.07 fold

Molecule: O=C(O)c1ccccc1 [Benzoate]
- Fold Change Wk 3 Sel vs Dandruff Baseline: 7.26**** fold
- Fold Change Wk 3 ZPT vs Dandruff Baseline: 2.02**** fold
- Fold Change Wk 3 ZPT vs Non-Dan Baseline: 2.16**** fold
- Fold Change Wk 3 Sel vs Non-Dan Baseline: 4.26**** fold

Molecule: NCCO [Ethanolamine]
- Mean Values WEEK 3 TRT Sel [1]: 1.7285
- Mean Values WEEK 3 TRT ZPT [2]: 0.976
- Fold Change Wk 3 Sel vs Dandruff Baseline: 1.63**** fold
- Fold Change Wk 3 ZPT vs Dandruff Baseline: 1.08 fold
- Fold Change Wk 3 ZPT vs Non-Dan Baseline: 2.53**** fold
- Fold Change Wk 3 Sel vs Non-Dan Baseline: 4.49** fold

Molecule: O=C(O)/C=C/C(=O)O [Fumarate]
- Fold Change Wk 3 Sel vs Dandruff Baseline: 0.37*** fold
- Fold Change Wk 3 ZPT vs Dandruff Baseline: 0.53 fold
- Fold Change Wk 3 ZPT vs Non-Dan Baseline: 0.68 fold
- Fold Change Wk 3 Sel vs Non-Dan Baseline: 0.76 fold

Molecule: NCCCC(=O)O [Gamma-aminobutyrate (GABA), Gamma-aminobutyrate]
- Mean Values WEEK 3 TRT ZPT [3]: 0.1343
- Mean Values WEEK 3 TRT Sel [4]: 0.1888

Molecule: N[C@@H](CCC(=O)N[C@@H](CCC(=O)O)C(=O)O)C(=O)O [Gamma-glutamylglutamate]
- Fold Change Wk 3 Sel vs Dandruff Baseline: 0.95 fold
- Fold Change Wk 3 ZPT vs Dandruff Baseline: 1.89** fold
- Fold Change Wk 3 ZPT vs Non-Dan Baseline: 2.09** fold
- Fold Change Wk 3 Sel vs Non-Dan Baseline: 1.11 fold
- Mean Values WEEK 3 TRT ZPT [3]: 1.7984
- Mean Values WEEK 3 TRT Sel [4]: 0.9586

Molecule: N[C@@H](CCC(=O)O)C(=O)O [Glutamate]
- Mean Values WEEK 3 TRT ZPT [3]: 0.7627
- Mean Values WEEK 3 TRT Sel [4]: 1.0169

Molecule: NCC(=O)O [Glycine]
- Mean Values WEEK 3 TRT ZPT [3]: 0.7968
- Mean Values WEEK 3 TRT Sel [4]: 0.8645

Molecule: CC(C)CCC[C@@H](C)[C@H]1CC[C@H]2C3=CC[C@H]4C[C@@H](O)CC[C@]4(C)[C@H]3CC[C@]12C [Lathosterol]
- Mean Values WEEK 3 TRT Sel [1]: 0.9469
- Mean Values WEEK 3 TRT ZPT [2]: 0.7479

Molecule: CC(C)C[C@H](N)C(=O)N[C@@H](CCC(=O)O)C(=O)O [Leucylglutamate] (H-Leu-Glu-OH)
- Mean Values WEEK 3 TRT Sel [1]: 0.9581
- Mean Values WEEK 3 TRT ZPT [2]: 0.874
- Fold Change Wk 3 Sel vs Dandruff Baseline: 0.81* fold
- Fold Change Wk 3 ZPT vs Dandruff Baseline: 1.13 fold
- Fold Change Wk 3 ZPT vs Non-Dan Baseline: 0.93 fold
- Fold Change Wk 3 Sel vs Non-Dan Baseline: 1.02 fold

Molecule: CCCC/C=C\CCCCCCCC(=O)O [Myristoleate (14:1n5), Myristoleate]
- Mean Values WEEK 3 TRT Sel [1]: 0.6261
- Mean Values WEEK 3 TRT ZPT [2]: 0.8341
- Fold Change Wk 3 Sel vs Dandruff Baseline: 0.53*** fold
- Fold Change Wk 3 ZPT vs Dandruff Baseline: 0.8*** fold
- Fold Change Wk 3 ZPT vs Non-Dan Baseline: 0.6* fold
- Fold Change Wk 3 Sel vs Non-Dan Baseline: 0.45* fold
